This is an account of results in patent US11306078B2, “Piperidine CXCR7 receptor modulators” (IDORSIA PHARMACEUTICALS LTD., priority 2016, dated 2022).

By IC50 is commonly meant the concentration that gives 50% inhibition. A lower IC50 goes with inhibition by little substance.

For this experiment, the target named is human chemokine receptor CXCR7 (Homo sapiens (Human), UniProt P25106). In words: Tango CXCR7-bla U2OS beta-arrestin recruitment assay (beta-lactamase reporter, FRET), antagonism of CXCL12/SDF1-α.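 Further: compounds preincubated 15 min before CXCL12 addition, then 22 h at 37 °C, FRET emission ratio read with CCF4-AM substrate after 2 h.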 The experiment is classed as cell-based. The conditions noted are these: antagonistic effect on CXCR7; Tango CXCR7-bla U2OS cells, CXCL12/SDF1-α at its EC80. A general note: Activated receptors often draw arrestin, which recruitment assays turn into a signal.
Sequence of human chemokine receptor CXCR7 (P25106 whole entry): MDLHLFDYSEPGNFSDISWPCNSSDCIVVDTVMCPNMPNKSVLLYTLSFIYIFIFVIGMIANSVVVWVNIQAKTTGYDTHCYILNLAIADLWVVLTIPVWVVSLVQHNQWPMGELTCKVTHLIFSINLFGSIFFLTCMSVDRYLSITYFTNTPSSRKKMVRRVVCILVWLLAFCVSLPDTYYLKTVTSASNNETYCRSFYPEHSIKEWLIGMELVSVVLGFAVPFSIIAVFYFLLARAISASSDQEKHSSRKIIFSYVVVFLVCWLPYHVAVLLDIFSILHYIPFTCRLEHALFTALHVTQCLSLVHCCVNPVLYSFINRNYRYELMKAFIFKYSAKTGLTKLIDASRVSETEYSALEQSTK
Regarding `O=C(N[C@@H]1CCN(C2CCCCC2)C[C@H]1C(=O)NC1(c2ccccn2)CC1)c1cc(-c2ccccc2F)on1` (racemic) [Example 3.009, rac-(3R*,4R*)-1-Cyclohexyl-4-{[5-(2-fluoro-phenyl)-isoxazole-3-carbonyl]amino}-piperidine-3-carboxylic acid (1-pyridin-2-yl-cyclopropyl)-amide], half-maximal inhibition (IC50) required 286 nM.
In the case of `O=C(N[C@@H]1CCN(C2CCCCC2)C[C@H]1C(=O)NCc1ccncn1)c1cc(-c2ccc(F)cc2F)on1` (racemic) [Example 1.034, rac-(3R*,4R*)-1-Cyclohexyl-4-{[5-(2,4-difluoro-phenyl)-isoxazole-3-carbonyl]-amino}-piperidine-3-carboxylic acid (pyrimidin-4-ylmethyl)-amide] it was 772 nM.
Under `CCN1CC[C@@H](NC(=O)c2cc(-c3ccc(F)cc3F)on2)[C@H](C(=O)NC(C)c2ccccn2)C1` (stereo partly shown) [Example 2.008] stands 405 nM; under `C[C@@H]1CCC[C@H]1N1CC[C@@H](NC(=O)c2cn(-c3ccc(F)cc3F)nn2)[C@H](C(=O)NC2(c3ccccn3)CC2)C1` (relative stereo) [Example 1.168, (3R*,4R*)-4-{[1-(2,4-Difluoro-phenyl)-1H-[1,2,3]triazole-4-carbonyl]-amino}-1-((1RS,2RS)-2-Methyl-cyclopentyl)-piperidine-3-carboxylic acid (1-pyridin-2-yl-cyclopropyl)-amide], 728 nM.
In the case of `O=C(N[C@@H]1CCN(CC2CC2)C[C@H]1C(=O)NC1(c2ncccn2)CC1)c1cc(-c2ccc(Cl)cc2Cl)on1` (racemic) [Example 1.189, rac-(3R*,4R*)-1-Cyclopropylmethyl-4-{[5-(2,4-dichloro-phenyl)-isoxazole-3-carbonyl]-amino}-piperidine-3-carboxylic acid (1-pyrimidin-2-yl-cyclopropyl)-amide] it was 36 nM; in that of `O=C(N[C@@H]1CCN(CC2CC2)C[C@H]1C(=O)NC1(c2ncccn2)CC1)c1noc(-c2ccc(F)cc2F)c1F` (racemic) [Example 3.022, rac-(3R*,4R*)-1-Cyclopropylmethyl-4-{[5-(2,4-difluoro-phenyl)-4-fluoro-isoxazole-3-carbonyl]-amino}-piperidine-3-carboxylic acid (1-pyrimidin-2-yl-cyclopropyl)-amide], 28 nM; in that of `C[C@@H](NC(=O)[C@H]1CN(C2CCC2)CC[C@@H]1NC(=O)c1cc(-c2ccc(F)cc2F)on1)c1ncccc1F` [Example 4.098], 18 nM.
As for `C[C@@H](NC(=O)[C@@H]1CN(C2CCCCC2)CC[C@H]1NC(=O)c1cc(-c2ccc(F)cc2F)no1)c1cnccn1` (relative stereo) [Example 1.133, (3R*,4R*)-1-Cyclohexyl-4-{[3-(2,4-difluoro-phenyl)-isoxazole-5-carbonyl]-amino}-piperidine-3-carboxylic acid ((R)-1-pyrazin-2-yl-ethyl)-amide], it took 594 nM to reach half-maximal inhibition (IC50). Against the preceding compound, the IC50 is about 33-fold higher.
In turn, `O=C(N[C@@H]1CCN(C2CCCCC2)C[C@H]1C(=O)NCC1CCCO1)c1cc(-c2ccc(F)cc2F)on1` (relative stereo) [Example 1.044, (3R*,4R*)-1-Cyclohexyl-4-{[5-(2,4-difluoro-phenyl)-isoxazole-3-carbonyl]-amino}-piperidine-3-carboxylic acid ((2RS)-tetrahydro-furan-2-ylmethyl)-amide] came in with an IC50 of 556 nM.
Compound `Cc1cc(CNC(=O)[C@@H]2CN(C3CCCCC3)CC[C@H]2NC(=O)c2cc(-c3ccc(F)cc3F)on2)nn1C` (racemic) [Example 1.045, rac-(3R*,4R*)-1-Cyclohexyl-4-{[5-(2,4-difluoro-phenyl)-isoxazole-3-carbonyl]-amino}-piperidine-3-carboxylic acid (1,5-dimethyl-1H-pyrazol-3-ylmethyl)-amide] gave an IC50 of 565 nM.
Regarding `CC(C)(NC(=O)[C@H]1CN(C2CCC2)CC[C@@H]1NC(=O)c1cc(-c2ccc(F)cc2F)on1)c1ncccn1` [Example 4.083], it took 11 nM to reach half-maximal inhibition (IC50). This IC50 lies about 51-fold lower than the previous one.
In the case of `CN(C)C(=O)[C@@H]1CN(CC2(C)CCC2)CC[C@H]1NC(=O)c1cc(-c2ccc(F)cc2F)on1` [Example 2.035] it was 121 nM.
In the case of `CN(C)C(=O)[C@@H]1CN(CCC(C)(C)C)CC[C@H]1NC(=O)c1cc(-c2ccc(F)cc2F)on1` [Example 2.022] it was 155 nM; in that of `CC(C)(CS(C)(=O)=O)NC(=O)[C@@H]1CN(C2CCCCC2)CC[C@H]1NC(=O)c1cc(-c2ccc(F)cc2F)on1` (racemic) [Example 1.081, rac-(3R*,4R*)-1-Cyclohexyl-4-{[5-(2,4-difluoro-phenyl)-isoxazole-3-carbonyl]-amino}-piperidine-3-carboxylic acid (2-methanesulfonyl-1,1-dimethyl-ethyl)-amide], 118 nM.
`C[C@@H](NC(=O)[C@@H]1CN(C2CCCCC2)CC[C@H]1NC(=O)c1cc(-c2ccc(F)cc2F)on1)c1cnccn1` [Example 1.09] gave a half-maximal inhibitory concentration (IC50) of 35 nM.
Under `CC(C)(CNC(=O)[C@@H]1CN(C2CCC2)CC[C@H]1NC(=O)c1cc(-c2ccc(F)cc2F)on1)c1ccccn1` [Example 4.087] stands 342 nM.
Under `C[C@@H](NC(=O)[C@@H]1CN(C2CCCCC2)CC[C@H]1NC(=O)c1cc(-c2c(F)cc(F)cc2F)on1)c1ccccn1` (single isomer, unassigned) [Example 1.121b, (3R*,4R*)-1-Cyclohexyl-4-{[5-(2,4,6-trifluoro-phenyl)-isoxazole-3-carbonyl]-amino}-piperidine-3-carboxylic acid ((R)-1-pyridin-2-yl-ethyl)-amide] stands 2 nM.
Compound `Cc1nc(C(C)(C)NC(=O)[C@H]2CN(CC3CC3)CC[C@@H]2NC(=O)c2cc(-c3ccc(F)cc3F)on2)no1` [Example 4.044] gave an IC50 of 75 nM.
Under `O=C(N[C@@H]1CCN(C2CCCCC2)C[C@H]1C(=O)NCc1nccs1)c1cc(-c2ccc(F)cc2F)on1` (racemic) [Example 1.051, rac-(3R*,4R*)-1-Cyclohexyl-4-{[5-(2,4-difluoro-phenyl)-isoxazole-3-carbonyl]-amino}-piperidine-3-carboxylic acid (thiazol-2-ylmethyl)-amide] stands 49 nM.
As for `CN(C)C(=O)[C@@H]1CN(C2CCCCC2)CC[C@H]1NC(=O)c1cc(-c2c(F)cccc2F)on1` (racemic) [Example 3.001, rac-(3R*,4R*)-1-Cyclohexyl-4-{[5-(2,6-difluoro-phenyl)-isoxazole-3-carbonyl]-amino}-piperidine-3-carboxylic acid dimethylamide], the IC50 was found to be 965 nM.
Under `C[C@@H](NC(=O)[C@@H]1CN(C2CCCCC2)CC[C@H]1NC(=O)c1cn(-c2ccc(F)cc2F)nn1)c1ccccn1` (relative stereo) [Example 1.117, (3R*,4R*)-1-Cyclohexyl-4-{[1-(2,4-difluoro-phenyl)-1H-[1,2,3]triazole-4-carbonyl]-amino}-piperidine-3-carboxylic acid ((R)-1-pyridin-2-yl-ethyl)-amide] stands 68 nM; under `C[C@@H](NC(=O)[C@@H]1CN(C2CCCCC2)CC[C@H]1NC(=O)c1cc(-c2ccc(F)cc2F)on1)c1ncc(F)cn1` (relative stereo) [Example 1.094, (3R*,4R*)-1-Cyclohexyl-4-{[5-(2,4-difluoro-phenyl)-isoxazole-3-carbonyl]-amino}-piperidine-3-carboxylic acid [(R)-1-(5-fluoro-pyrimidin-2-yl)-ethyl]-amide], 100 nM; under `O=C(N[C@@H]1CCN(C2CCCCC2)C[C@H]1C(=O)NCCc1ccccc1Cl)c1cc(-c2ccc(F)cc2F)on1` (racemic) [Example 1.058, rac-(3R*,4R*)-1-Cyclohexyl-4-{[5-(2,4-difluoro-phenyl)-isoxazole-3-carbonyl]-amino}-piperidine-3-carboxylic acid [2-(2-chloro-phenyl)-ethyl]-amide], 1 nM.
Under `Cn1ccc(CNC(=O)[C@@H]2CN(C3CCCCC3)CC[C@H]2NC(=O)c2cc(-c3ccc(F)cc3F)on2)n1` (racemic) [Example 1.042, rac-(3R*,4R*)-1-Cyclohexyl-4-{[5-(2,4-difluoro-phenyl)-isoxazole-3-carbonyl]-amino}-piperidine-3-carboxylic acid (1-methyl-1H-pyrazol-3-ylmetyl)-amide] stands 532 nM.
In turn, `N#CC1(NC(=O)[C@@H]2CN(C3CCCC3)CC[C@H]2NC(=O)c2cc(-c3ccc(F)cc3F)on2)CCC1` [Example 2.064] yielded an IC50 of 84 nM.
Take `O=C(N[C@@H]1CCN(CC2CC2)C[C@H]1C(=O)NC1(c2ccccn2)CC1)c1cc(-c2c(F)cc(F)cc2F)on1` (single isomer, unassigned) [Example 1.171b, (3R*,4R*)-1-Cyclopropylmethyl-4-{[5-(2,4,6-trifluoro-phenyl)-isoxazole-3-carbonyl]-amino}-piperidine-3-carboxylic acid (1-pyridin-2-yl-cyclopropyl)-amide]: half-maximal inhibition (IC50) was put at 446 nM. Against the preceding compound, the IC50 is about 5.3-fold higher.
Under `COc1ccccc1C1(NC(=O)[C@H]2CN(CC3CC3)CC[C@@H]2NC(=O)c2cc(-c3ccc(F)cc3F)on2)CC1` [Example 4.074] stands 27 nM.
In the case of `N#CCN1CC[C@H](NC(=O)c2cc(-c3ccc(F)cc3F)on2)[C@@H](C(=O)NC2(c3ncccn3)CC2)C1` [Example 4.051] it was 356 nM; in that of `Cc1nc(NC(=O)[C@@H]2CN(C3CCCCC3)CC[C@H]2NC(=O)c2cc(-c3ccc(F)cc3F)on2)sc1C` (racemic) [Example 1.065, rac-(3R*,4R*)-1-Cyclohexyl-4-{[5-(2,4-difluoro-phenyl)-isoxazole-3-carbonyl]-amino}-piperidine-3-carboxylic acid (4,5-dimethyl-thiazol-2-yl)-amide], 567 nM; in that of `O=C(N[C@@H]1CCN(C2CCCCC2)C[C@H]1C(=O)N1CCC(c2ccccc2)C1)c1cc(-c2ccc(F)cc2F)on1` (stereo partly shown) [Example 1.07], 559 nM.
In the case of `CC1(NC(=O)[C@@H]2CN(C3CCCCC3)CC[C@H]2NC(=O)c2cc(-c3ccc(F)cc3F)on2)CCOC1` (relative stereo) [Example 1.084, (3R*,4R*)-1-Cyclohexyl-4-{[5-(2,4-difluoro-phenyl)-isoxazole-3-carbonyl]-amino}-piperidine-3-carboxylic acid ((3RS)-3-methyl-tetrahydro-furan-3-yl)-amide] it was 223 nM.
